What was measured:
[1] = Inhibition of N-terminal 6His-tagged SARS-CoV nsp14 N7-methyltransferase activity expressed in Escherichia coli using GpppAC4 synthetic RNA and [3H]-SAM as substrate incubated for 30 mins in presence of SAM by Liquid scintillation analysis; parameters: species or system Severe acute respiratory syndrome-related coronavirus
[2] = Inhibition of SARS-CoV-2 nsp16 (1 to 298 residues) expressed in Escherichia coli BL21(DE3)RIL cells using RNA and [3H]SAM as substrate incubated for 1 hrs by SPA-based assay; parameters: species or system Severe acute respiratory syndrome coronavirus 2
[3] = target: T1, Replicase polyprotein 1ab (Severe acute respiratory syndrome coronavirus 2, UniProt P0DTD1); assay: Inhibition of SARS-CoV-2 main protease by FRET assay
[4] = target: T1, Replicase polyprotein 1ab; assay: Inhibition of C-terminal His-tagged SARS-CoV-2 PLpro BetaCoV/Wuhan/WIV04/2019 expressed in Escherichia coli BL21(DE3) using ISG-AMC substrate incubated for 3 hrs by FRET analysis
SARS-CoV-2 [5] = assay: Antiviral activity against SARS CoV-2 USA-WA1/2020 infected in African green monkey Vero E6 cells assessed as reduction in viral plaque formation incubated for 3 days by plaque reduction neutralization assay; type: functional, organism-based; details: Severe acute respiratory syndrome coronavirus 2, USA-WA1/2020, Vero C1008, 72 h
[6] = target: T1, Replicase polyprotein 1ab; assay: Inhibition of recombinant SARS-CoV-2 PLpro expressed in Escherichia coli BL21 (DE3) using Arg-Leu-Arg-Gly-Gly-AMC as substrate preincubated for 5 mins followed by substrate addition measured after 6 mins by fluorescence based assay
SARS-CoV-2 [7] = assay: Antiviral activity against SARS-CoV-2 infected in African green monkey Vero E6 cells assessed as inhibition of virus growth; type: functional, organism-based; details: Severe acute respiratory syndrome coronavirus 2, Vero C1008
Furin = Furin (Homo sapiens, UniProt P09958); assay: Inhibition of furin (unknown origin)
Sequence of Furin (P09958 whole entry): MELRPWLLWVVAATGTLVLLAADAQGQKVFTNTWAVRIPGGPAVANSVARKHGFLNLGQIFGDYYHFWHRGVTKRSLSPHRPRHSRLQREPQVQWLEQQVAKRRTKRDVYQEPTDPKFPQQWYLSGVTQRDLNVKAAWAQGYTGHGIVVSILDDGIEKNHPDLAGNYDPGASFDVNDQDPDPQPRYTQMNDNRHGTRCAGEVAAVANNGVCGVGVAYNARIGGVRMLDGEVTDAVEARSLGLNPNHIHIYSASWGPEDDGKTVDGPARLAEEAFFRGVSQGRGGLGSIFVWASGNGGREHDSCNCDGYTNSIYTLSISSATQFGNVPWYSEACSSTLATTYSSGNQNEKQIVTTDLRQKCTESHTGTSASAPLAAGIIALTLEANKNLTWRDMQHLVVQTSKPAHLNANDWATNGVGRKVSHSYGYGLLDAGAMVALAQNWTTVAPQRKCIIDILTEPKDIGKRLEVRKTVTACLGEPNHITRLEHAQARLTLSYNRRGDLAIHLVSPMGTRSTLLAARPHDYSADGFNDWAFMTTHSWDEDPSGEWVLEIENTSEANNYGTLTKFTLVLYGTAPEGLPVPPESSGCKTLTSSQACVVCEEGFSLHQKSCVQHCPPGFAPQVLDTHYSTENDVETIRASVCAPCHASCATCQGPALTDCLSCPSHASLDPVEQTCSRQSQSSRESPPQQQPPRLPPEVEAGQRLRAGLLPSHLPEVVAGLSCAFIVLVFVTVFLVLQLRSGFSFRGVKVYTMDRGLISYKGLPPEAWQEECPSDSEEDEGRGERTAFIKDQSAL

SARS-CoV-2 [8] = assay: microbe, parasite or virus in culture; details: Severe acute respiratory syndrome coronavirus 2, Vero, 24 h
[9] = target: T1, Replicase polyprotein 1ab; assay: Inhibition of recombinant SARS-CoV-2 Main protease by FRET analysis

Question: Which IC50 [1] does the source give for `N#Cc1cn([C@@H]2O[C@H](CSCC[C@H](N)C(=O)O)[C@@H](O)[C@H]2O)c2ncnc(N)c12` here?
Answer: Its IC50 is 70 nM.

Question: What about the IC50 [2] of the same molecule?
Answer: Its IC50 is 1200 nM.

Question: For `CCOC(=O)/C=C/[C@H](C[C@@H]1CCNC1=O)NC(=O)[C@H](Cc1ccccc1)NC(=O)[C@@H](Cc1ccc(F)cc1)NC(=O)OC(C)(C)C`, which IC50 [3] is on record?
Answer: Its IC50 is 1800 nM.

Question: What about the IC50 [4] of the same molecule?
Answer: The IC50 was 60 nM.

Question: For `CCOC(=O)/C=C/[C@H](C[C@@H]1CCNC1=O)NC(=O)[C@H](Cc1ccccc1)NC(=O)[C@H](N)Cc1ccccc1`, which IC50 [4] is on record?
Answer: Its IC50 is 60 nM.

Question: With `Nc1ncnc2c1ncn2[C@@H]1O[C@H](C[C@@H](CO)CC[C@H](N)C(=O)O)[C@@H](O)[C@H]1O` as the molecule, how does the IC50 [1] read?
Answer: Its IC50 is 190 nM.

Question: And the IC50 [2]?
Answer: Its IC50 is 3400 nM.

Question: With `CCCCCCCCCCCCCCCc1cccc(O)c1C(=O)O` [ANACARDIC ACID] as the molecule, how does the EC50 (SARS-CoV-2 [5]) read?
Answer: The EC50 was 9000 nM.

Question: Which results are given for `CC(C)[C@H](NC(=O)[C@H](CCCNC(=N)N)NC(=O)N[C@@H](Cc1ccccc1)C(=O)O)C(=O)N[C@H](C=O)CCCNC(=N)N` [ANTIPAIN]?
Answer: IC50 [6]: 3 nM; EC50 (SARS-CoV-2 [7]): 640 nM

Question: With `N=C(N)c1ccc(/N=N/Nc2ccc(C(=N)N)cc2)cc1` [DIMINAZENE] as the molecule, how does the IC50 (Furin) read?
Answer: Its IC50 is 580 nM.

Question: With `CCCCCC/C=C\CCCCCCCc1cccc(O)c1C(=O)O` [GINGKOLIC ACID] as the molecule, how does the EC50 (SARS-CoV-2 [5]) read?
Answer: The EC50 was 8300 nM.

Question: With `N=C(N)Nc1ccc(C(=O)Oc2ccc3cc(C(=N)N)ccc3c2)cc1` [NAFAMOSTAT] as the molecule, how does the EC50 (SARS-CoV-2 [8]) read?
Answer: The EC50 was 10 nM.

Question: For `O=C(OC[C@H]1O[C@@H](OC(=O)c2cc(O)c(O)c(OC(=O)c3cc(O)c(O)c(O)c3)c2)[C@H](OC(=O)c2cc(O)c(O)c(OC(=O)c3cc(O)c(O)c(O)c3)c2)[C@@H](OC(=O)c2cc(O)c(O)c(OC(=O)c3cc(O)c(O)c(O)c3)c2)[C@@H]1OC(=O)c1cc(O)c(O)c(OC(=O)c2cc(O)c(O)c(O)c2)c1)c1cc(O)c(O)c(OC(=O)c2cc(O)c(O)c(O)c2)c1` [TANNIC ACID], which IC50 [9] is on record?
Answer: The IC50 was 13200 nM.

— ChEMBL document CHEMBL5500424, “New Strategies for Responding to SARS-CoV-2: The Present and Future of Dual-Target Drugs” (J Med Chem, 2024)
